Measurements reported in paper PMC8950663, “Cyanobacteria Secondary Metabolites as Biotechnological Ingredients in Natural Anti-Aging Cosmetics: Potential to Overcome Hyperpigmentation, Loss of Skin Density and UV Radiation-Deleterious Effects” (Marine Drugs, 2022).

Biological target: T1, hyaluronidase (HAase)
T1 construct: gene SPAM1
Assay: colorimetric DMAB end-point assay of hyaluronic acid degradation, […] nm
Assay type: biochemical
Settings: hyaluronic acid substrate (0.7 mg/mL stock), 37 °C, 30 min; positive control

- IC50: 1105 µg/mL
Compound: O=C(O)c1cc(=O)c2c(OCC(O)COc3cccc4oc(C(=O)O)cc(=O)c34)cccc2o1 [di-sodium cromoglicate]
